Results as given in patent US20250144067A1, “PERSONALIZED STARVATION THERAPY FOR CANCER” (Faeth Therapeutics, Inc., priority 2021, published 2025).
Structures can show the parent of a compound that is named as a salt.

Columns and labels:
[1] = test system: NCI-H292 lung cancer cells; assay: FDA drug screening, complete media vs cholesterol-free media with simvastatin (TABLE 2); assay type: cell-based, human; conditions: for Cholesterol-free media + simvastatin (0.04 μM) / Complete Media: NCI-H292 cells
[2] = test system: NCI-H292 lung cancer cells; assay: FDA drug screening, complete media vs cholesterol-free media without statin (TABLE 1); assay type: cell-based, human
[3] = complete media vs cholesterol-free media + simvastatin (0.04 μM), >0 enhanced anti-cancer activity, about 0 neutral, <0 antagonist
[4] = NCI-H292 cells, cholesterol-free media without statin, FDA drug library screen
[5] = NCI-H292 cells, complete media, FDA drug library screen
[6] = complete vs cholesterol-free media, >0 enhanced anti-cancer activity, about 0 neutral, <0 antagonist
[7] = cholesterol-free media with simvastatin 0.04 μM, FDA drug library screen (TABLE 2)
[8] = complete media, FDA drug library screen (TABLE 2)
[9] = complete media minus cholesterol-free media + simvastatin (0.04 μM), >0 enhanced anti-cancer activity, about 0 neutral, <0 antagonist
[10] = Complete minus Cholesterol-free, >0 enhanced anti-cancer activity, about 0 neutral, <0 antagonist
[11] = FDA drug library screen, cholesterol-free media with simvastatin 0.04 μM
[12] = FDA drug library screen, complete media
[13] = FDA library drug in cholesterol-free media with simvastatin 0.04 μM
[14] = FDA library drug in complete media
[15] = cholesterol-free media with simvastatin 0.04 μM, cell growth value in FDA drug screen
[16] = complete media, cell growth value in FDA drug screen
[17] = complete media minus cholesterol-free media + simvastatin, >0 enhanced anti-cancer activity, about 0 neutral, <0 antagonist
[18] = NCI-H292 cells, cholesterol-free media without statin
[19] = complete media vs cholesterol-free media + simvastatin (0.04 μM), […]

| Compound | Difference [1, 3] | Cholesterol-free [2, 4] | Complete [2, 5] | Difference [2, 10] | Cholesterol-free media + simvastatin (0.04 μM) [1, 11] | Complete Media [1, 12] | other results |
| --- | --- | --- | --- | --- | --- | --- | --- |
| CCOC(=O)[C@H](CCc1ccccc1)N[C@H]1CCCN2CCC[C@@H](C(=O)O)N2C1=O [Cilazapril (monohydrate)] | −0.16 | 0.8411 | 0.9896 |  |  |  | Cholesterol-free media + simvastatin (0.04 μM) ([1]; drug in cholesterol-free media with simvastatin 0.04 μM): 1.266; Complete Media ([1]; drug in complete media): 1.104; Difference [2, 6]: 0.15 |
| CS(=O)(=O)c1ccc(C(=O)Nc2ccc(Cl)c(-c3ccccn3)c2)c(Cl)c1 [Vismodegib] |  | 1.219 |  | −0.05 |  |  | Cholesterol-free media + simvastatin (0.04 μM) [1, 7]: 1.089; Complete Media [1, 8]: 1.052; Difference [1, 9]: −0.04 |
| COc1cc2nc(N3CCN(C(=O)c4ccco4)CC3)nc(N)c2cc1OC [Prazosin (hydrochloride)] | −0.15 |  |  |  | 1.23 | 1.079 | Difference ([2]; Complete minus Cholesterol-free, greater than 0 enhanced anti-cancer activity, about 0 neutral, below 0 antagonists): −0.52; Cholesterol-free ([2]; NCI-H292 cells in cholesterol-free media without statin): 1.627; Complete ([2]; NCI-H292 cells in complete media): 1.105 |
| CCOC(=O)[C@H](CCc1ccccc1)N[C@@H](C)C(=O)N1Cc2ccccc2C[C@H]1C(=O)O [Quinapril (hydrochloride)] | −0.37 | 0.6191 | 0.9945 |  |  |  | Cholesterol-free media + simvastatin (0.04 μM) [1, 13]: 1.23; Complete Media [1, 14]: 0.862; Difference [2, 6]: 0.38 |
| O=C(O)c1cccnc1 [Niacin] |  |  |  | −0.27 |  |  | Cholesterol-free media + simvastatin (0.04 μM) [1, 15]: 1.244; Complete Media [1, 16]: 1.362; Difference [1, 17]: 0.12; Cholesterol-free [2, 18]: 1.266; Complete ([2]; NCI-H292 cells, complete media): 0.9994 |
| Cc1cc(=O)oc2cc(O)ccc12 [4-Methylumbelliferone] | −0.07 | 0.6739 | 1.119 |  | 1.129 | 1.057 | Difference [2, 6]: 0.45 |
| O=C(O[C@H]1C[C@H]2CC[C@@H](C1)[N+]21CCCC1)C(O)(c1ccccc1)c1ccccc1.[Cl-] [Trospium (chloride)] |  | 1.278 | 1.859 |  |  |  | Cholesterol-free media + simvastatin (0.04 μM) [1, 13]: 2.08; Complete Media [1, 14]: 1.646; Difference [1, 19]: −0.43; Difference ([2]; complete vs cholesterol-free media, […]): 0.58 |
| Cc1cn([C@@H]2C[C@@H](O)[C@H](CO)O2)c(=O)[nH]c1=O [Telbivudine] |  | 0.8613 | 0.8275 | −0.03 |  |  | Cholesterol-free media + simvastatin (0.04 μM) [1, 7]: 0.8748; Complete Media [1, 8]: 0.8605; Difference [1, 9]: −0.01 |
| Osimertinib (dimesylate) |  | 0.1916 | 0.1371 |  | 0.4427 | 0.3618 | Difference [1, 19]: −0.08; Difference ([2]; Complete minus Cholesterol-free, […]): −0.05 |
| CCN(CC)CCNC(=O)c1c(C)[nH]c(/C=C2\C(=O)Nc3ccc(F)cc32)c1C [Sunitinib] | −0.36 | 0.5331 | 0.523 | −0.01 |  |  | Cholesterol-free media + simvastatin (0.04 μM) [1, 13]: 1.48; Complete Media [1, 14]: 1.121 |
| C[C@H](Cc1cc2c(c(C(N)=O)c1)N(CCCO)CC2)NCCOc1ccccc1OCC(F)(F)F [Silodosin] | −0.14 |  |  |  | 1.21 | 1.074 | Cholesterol-free [2, 18]: 1.295; Complete ([2]; NCI-H292 cells, complete media): 0.8816; Difference ([2]; complete vs cholesterol-free media, greater than 0 enhanced anti-cancer activity, about 0 neutral, below 0 antagonists): −0.41 |
| Fenticonazole (Nitrate) |  | 0.9899 |  |  | 0.6564 | 1.167 | Difference [1, 17]: 0.51; Difference [2, 6]: 0.08 |
| O=c1ccn([C@@H]2O[C@H](CO)[C@@H](O)[C@H]2O)c(=O)[nH]1 [Uridine] | −0.29 |  |  | −0.19 |  |  | Cholesterol-free media + simvastatin (0.04 μM) [1, 13]: 1.294; Complete Media [1, 14]: 1.006; Cholesterol-free [2, 18]: 1.404; Complete ([2]; NCI-H292 cells, complete media): 1.215 |
| CCCCC(=O)OCC(=O)[C@]1(O)Cc2c(O)c3c(c(O)c2[C@@H](O[C@H]2C[C@H](NC(=O)C(F)(F)F)[C@H](O)[C@H](C)O2)C1)C(=O)c1c(OC)cccc1C3=O [Valrubicin] |  | 0.04622 | 0.06624 | 0.02 |  |  | Cholesterol-free media + simvastatin (0.04 μM) [1, 15]: 0.07499; Complete Media [1, 16]: 0.1845; Difference [1, 17]: 0.11 |
| CCC1(C)CC(=O)NC1=O (stereo not shown) [Ethosuximide] | −0.14 |  |  | −0.24 | 1.133 | 0.9952 | Cholesterol-free [2, 18]: 1.124; Complete ([2]; NCI-H292 cells, complete media): 0.884 |
